Experimental data published in ChEMBL document CHEMBL4725427, “Synthesis and SAR Studies of 1H-Pyrrolo[2,3-b]pyridine-2-carboxamides as Phosphodiesterase 4B (PDE4B) Inhibitors” (ACS Med Chem Lett, 2020).

How the values were obtained:
[1] = target: cAMP and cAMP-inhibited cGMP 3',5'-cyclic phosphodiesterase 10A (Homo sapiens) (UniProt Q9Y233); assay: Inhibition of recombinant human N-terminal GST-tagged PDE10A2 expressed in baculovirus infected Sf9 cells at 10 uM by radioligand assay relative to control
[2] = target: 5-hydroxytryptamine receptor 2C (Homo sapiens) (UniProt P28335); assay: Inhibition of 5HT2C (unknown origin) relative to control; conditions: concentration not given here
[3] = target: D(1B) dopamine receptor (Homo sapiens) (UniProt P21918); assay: Inhibition of D5 (unknown origin) relative to control; conditions: concentration not given here
[4] = target: Histamine H2 receptor (Homo sapiens) (UniProt P25021); assay: Inhibition of histamine H2 receptor (unknown origin) relative to control; conditions: concentration not given here
[5] = target: Translocator protein TSPO (Homo sapiens) (UniProt P30536); assay: Inhibition of PBR receptor (unknown origin) relative to control; conditions: concentration not given here
[6] = target: cGMP-inhibited 3',5'-cyclic phosphodiesterase 3B (Homo sapiens) (UniProt Q13370); assay: Inhibition of recombinant human N-terminal His-tagged PDE3B (592 to end residues) expressed in baculovirus infected Sf9 cells at 10 uM by radioligand assay relative to control
[7] = target: Mu-type opioid receptor (Homo sapiens) (UniProt P35372); assay: Inhibition of MOR (unknown origin) relative to control; conditions: concentration not given here
Rattus norvegicus = species on record: Rattus norvegicus; assay: Inhibition of rat brain BZP relative to control; format: tissue-based; conditions: dose or concentration not given here
[8] = Metabolic stability in human Hepatocyte assessed as half life; format: ADME, tissue-based; conditions: hepatocytes
[9] = target: cGMP-specific 3',5'-cyclic phosphodiesterase (Homo sapiens) (UniProt O76074); assay: Inhibition of recombinant human N-terminal GST-tagged PDE5A1 expressed in baculovirus infected Sf9 cells at 10 uM by radioligand assay relative to control
[10] = target: Dual 3',5'-cyclic-AMP and -GMP phosphodiesterase 11A (Homo sapiens) (UniProt Q9HCR9); assay: Inhibition of recombinant human N-terminal GST-tagged PDE11A4 expressed in baculovirus infected Sf9 cells at 10 uM by radioligand assay relative to control
[11] = target: Kappa-type opioid receptor (Homo sapiens) (UniProt P41145); assay: Inhibition of KOR (unknown origin) relative to control; conditions: concentration not given here
[12] = target: Delta-type opioid receptor (Homo sapiens) (UniProt P41143); assay: Inhibition of DOR receptor (unknown origin) relative to control; conditions: concentration not given here
[13] = Metabolic stability in human liver microsomes assessed as intrinsic clearance; format: ADME, Microsome; conditions: read-out: CLH
[14] = target: Alpha-1B adrenergic receptor (Homo sapiens) (UniProt P35368); assay: Inhibition of adrenoceptor alpha 1B (unknown origin) relative to control; conditions: concentration not given here
[15] = target: Muscarinic acetylcholine receptor M5 (Homo sapiens) (UniProt P08912); assay: Inhibition of muscarinic M5 receptor (unknown origin) relative to control; conditions: concentration not given here
[16] = target: Alpha-2B adrenergic receptor (Homo sapiens) (UniProt P18089); assay: Inhibition of adrenoceptor alpha 2B (unknown origin) relative to control; conditions: concentration not given here
[17] = target: 5-hydroxytryptamine receptor 1D (Homo sapiens) (UniProt P28221); assay: Inhibition of 5HT1D (unknown origin) relative to control; conditions: concentration not given here
[18] = target: cGMP-inhibited 3',5'-cyclic phosphodiesterase 3A (Homo sapiens) (UniProt Q14432); assay: Inhibition of recombinant human N-terminal His-tagged PDE3A (669 to 1141 end residues) expressed in baculovirus infected Sf9 cells at 10 uM by radioligand assay relative to control
[19] = target: D(2) dopamine receptor (Homo sapiens) (UniProt P14416); assay: Inhibition of D2 (unknown origin) relative to control; conditions: concentration not given here
[20] = target: Sigma non-opioid intracellular receptor 1 (Homo sapiens) (UniProt Q99720); assay: Inhibition of sigma1 receptor (unknown origin) relative to control; conditions: concentration not given here
[21] = Protein binding in human plasma assessed as unbound fraction; format: ADME, cell-free
[22] = target: 5-hydroxytryptamine receptor 2B (Homo sapiens) (UniProt P41595); assay: Inhibition of 5HT2B (unknown origin) relative to control; conditions: concentration not given here
[23] = target: Cone cGMP-specific 3',5'-cyclic phosphodiesterase subunit alpha' (Homo sapiens) (UniProt P51160); assay: Inhibition of recombinant human N-terminal GST-tagged PDE6C expressed in baculovirus infected Sf9 cells at 10 uM by radioligand assay relative to control
[24] = Metabolic stability in mouse liver microsomes assessed as intrinsic clearance; format: ADME, Microsome; conditions: read-out: CLH
[25] = target: Histamine H3 receptor (Homo sapiens) (UniProt Q9Y5N1); assay: Inhibition of histamine H3 receptor (unknown origin) relative to control; conditions: concentration not given here
[26] = target: Dual specificity calcium/calmodulin-dependent 3',5'-cyclic nucleotide phosphodiesterase 1B (Homo sapiens) (UniProt Q01064); assay: Inhibition of recombinant human N-terminal GST-tagged PDE1B expressed in baculovirus infected Sf9 cells at 10 uM by radioligand assay relative to control
[27] = target: 5-hydroxytryptamine receptor 7 (Homo sapiens) (UniProt P34969); assay: Inhibition of 5HT7A (unknown origin) relative to control; conditions: concentration not given here
[28] = Inhibition of recombinant human N-terminal GST-tagged PDE4A1A (1 to 647 residues) expressed in baculovirus infected Sf9 cells at 10 uM by radioligand assay relative to control
[29] = target: D(4) dopamine receptor (Homo sapiens) (UniProt P21917); assay: Inhibition of D4 (unknown origin) relative to control; conditions: concentration not given here
[30] = target: Alpha-2A adrenergic receptor (Homo sapiens) (UniProt P08913); assay: Inhibition of adrenoceptor alpha 2A (unknown origin) relative to control; conditions: concentration not given here
[31] = target: Muscarinic acetylcholine receptor M2 (Homo sapiens) (UniProt P08172); assay: Inhibition of muscarinic M2 receptor (unknown origin) relative to control; conditions: concentration not given here
[32] = target: Sodium-dependent dopamine transporter (Homo sapiens) (UniProt Q01959); assay: Inhibition of DAT receptor (unknown origin) relative to control; conditions: concentration not given here
[33] = target: High affinity cAMP-specific and IBMX-insensitive 3',5'-cyclic phosphodiesterase 8A (Homo sapiens) (UniProt O60658); assay: Inhibition of recombinant human N-terminal GST-tagged PDE8A1 expressed in baculovirus infected Sf9 cells at 10 uM by radioligand assay relative to control
[34] = target: 5-hydroxytryptamine receptor 5A (Homo sapiens) (UniProt P47898); assay: Inhibition of 5HT5A (unknown origin) relative to control; conditions: concentration not given here
[35] = target: Sigma intracellular receptor 2 (Homo sapiens, UniProt Q5BJF2); assay: Inhibition of sigma2 receptor (unknown origin) relative to control; conditions: concentration not given here
[36] = target: Dual specificity calcium/calmodulin-dependent 3',5'-cyclic nucleotide phosphodiesterase 1A (Homo sapiens) (UniProt P54750); assay: Inhibition of recombinant human N-terminal GST-tagged PDE1A1 expressed in baculovirus infected Sf9 cells at 10 uM by radioligand assay relative to control
[37] = target: High affinity cGMP-specific 3',5'-cyclic phosphodiesterase 9A (Homo sapiens) (UniProt O76083); assay: Inhibition of recombinant human N-terminal GST-tagged PDE9A2 expressed in baculovirus infected Sf9 cells at 10 uM by radioligand assay relative to control
[38] = target: 5-hydroxytryptamine receptor 1A (Homo sapiens) (UniProt P08908); assay: Inhibition of 5HT1A (unknown origin) relative to control; conditions: concentration not given here

Sequence of cGMP-inhibited 3',5'-cyclic phosphodiesterase 3A (Homo sapiens) (Q14432 whole entry): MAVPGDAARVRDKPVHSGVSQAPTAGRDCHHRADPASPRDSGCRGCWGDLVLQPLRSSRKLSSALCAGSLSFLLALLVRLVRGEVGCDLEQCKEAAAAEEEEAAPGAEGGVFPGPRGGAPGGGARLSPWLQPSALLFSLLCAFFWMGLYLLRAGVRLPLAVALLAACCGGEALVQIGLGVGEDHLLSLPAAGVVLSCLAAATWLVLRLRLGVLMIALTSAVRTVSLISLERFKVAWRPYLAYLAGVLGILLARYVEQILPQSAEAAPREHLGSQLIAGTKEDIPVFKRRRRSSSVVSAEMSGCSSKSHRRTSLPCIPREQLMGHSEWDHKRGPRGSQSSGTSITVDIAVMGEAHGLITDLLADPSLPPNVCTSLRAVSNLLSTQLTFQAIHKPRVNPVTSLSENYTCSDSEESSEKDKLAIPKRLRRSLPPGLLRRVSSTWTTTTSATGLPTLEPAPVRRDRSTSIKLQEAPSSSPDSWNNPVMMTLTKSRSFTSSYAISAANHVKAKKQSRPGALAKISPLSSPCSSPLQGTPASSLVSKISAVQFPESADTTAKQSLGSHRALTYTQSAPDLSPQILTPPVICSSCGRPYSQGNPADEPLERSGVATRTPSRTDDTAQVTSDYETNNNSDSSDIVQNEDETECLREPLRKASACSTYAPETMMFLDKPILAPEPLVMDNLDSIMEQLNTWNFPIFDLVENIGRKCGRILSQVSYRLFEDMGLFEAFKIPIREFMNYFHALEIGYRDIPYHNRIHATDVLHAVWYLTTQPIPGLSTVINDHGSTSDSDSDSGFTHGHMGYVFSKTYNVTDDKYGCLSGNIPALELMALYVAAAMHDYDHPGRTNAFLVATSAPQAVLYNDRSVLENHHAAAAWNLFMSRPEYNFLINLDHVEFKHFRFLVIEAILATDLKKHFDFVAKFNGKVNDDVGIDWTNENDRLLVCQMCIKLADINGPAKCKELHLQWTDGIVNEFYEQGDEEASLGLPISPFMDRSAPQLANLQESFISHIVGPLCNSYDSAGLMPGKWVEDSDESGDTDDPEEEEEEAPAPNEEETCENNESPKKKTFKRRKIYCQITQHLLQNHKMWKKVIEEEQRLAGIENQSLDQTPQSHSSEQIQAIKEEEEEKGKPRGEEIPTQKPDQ
Sequence of Alpha-2A adrenergic receptor (Homo sapiens) (P08913 whole entry): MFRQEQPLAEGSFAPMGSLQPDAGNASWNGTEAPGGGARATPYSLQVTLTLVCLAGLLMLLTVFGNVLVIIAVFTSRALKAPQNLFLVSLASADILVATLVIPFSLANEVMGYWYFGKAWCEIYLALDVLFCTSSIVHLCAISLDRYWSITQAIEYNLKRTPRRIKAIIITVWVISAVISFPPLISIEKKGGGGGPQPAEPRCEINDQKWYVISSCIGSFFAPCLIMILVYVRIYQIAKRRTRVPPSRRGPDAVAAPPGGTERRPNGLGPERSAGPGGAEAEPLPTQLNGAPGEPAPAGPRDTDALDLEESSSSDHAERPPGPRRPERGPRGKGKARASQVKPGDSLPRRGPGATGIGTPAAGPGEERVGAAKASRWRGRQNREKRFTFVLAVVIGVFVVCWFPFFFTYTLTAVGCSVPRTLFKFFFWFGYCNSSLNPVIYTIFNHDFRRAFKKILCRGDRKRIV
Sequence of Sigma non-opioid intracellular receptor 1 (Homo sapiens) (Q99720 whole entry): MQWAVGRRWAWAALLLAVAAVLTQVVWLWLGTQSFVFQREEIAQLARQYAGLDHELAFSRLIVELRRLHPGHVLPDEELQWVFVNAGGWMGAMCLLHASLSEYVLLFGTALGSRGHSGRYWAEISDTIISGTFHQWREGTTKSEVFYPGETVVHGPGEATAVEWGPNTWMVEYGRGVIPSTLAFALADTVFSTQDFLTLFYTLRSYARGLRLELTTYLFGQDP
Sequence of 5-hydroxytryptamine receptor 2B (Homo sapiens) (P41595 whole entry): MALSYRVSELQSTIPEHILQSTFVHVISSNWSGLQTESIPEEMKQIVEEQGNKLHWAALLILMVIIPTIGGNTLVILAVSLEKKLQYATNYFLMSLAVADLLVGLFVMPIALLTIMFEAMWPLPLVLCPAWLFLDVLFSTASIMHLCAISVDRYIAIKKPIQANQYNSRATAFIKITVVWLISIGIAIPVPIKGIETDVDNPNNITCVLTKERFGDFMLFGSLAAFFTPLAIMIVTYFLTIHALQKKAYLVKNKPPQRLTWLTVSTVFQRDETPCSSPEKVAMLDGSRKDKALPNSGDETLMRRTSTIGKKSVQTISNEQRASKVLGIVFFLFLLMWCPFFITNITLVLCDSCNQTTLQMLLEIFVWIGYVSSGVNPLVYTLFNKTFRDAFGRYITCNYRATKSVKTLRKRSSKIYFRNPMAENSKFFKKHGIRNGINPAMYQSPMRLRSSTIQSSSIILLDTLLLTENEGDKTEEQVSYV
Sequence of Histamine H2 receptor (Homo sapiens) (P25021 whole entry): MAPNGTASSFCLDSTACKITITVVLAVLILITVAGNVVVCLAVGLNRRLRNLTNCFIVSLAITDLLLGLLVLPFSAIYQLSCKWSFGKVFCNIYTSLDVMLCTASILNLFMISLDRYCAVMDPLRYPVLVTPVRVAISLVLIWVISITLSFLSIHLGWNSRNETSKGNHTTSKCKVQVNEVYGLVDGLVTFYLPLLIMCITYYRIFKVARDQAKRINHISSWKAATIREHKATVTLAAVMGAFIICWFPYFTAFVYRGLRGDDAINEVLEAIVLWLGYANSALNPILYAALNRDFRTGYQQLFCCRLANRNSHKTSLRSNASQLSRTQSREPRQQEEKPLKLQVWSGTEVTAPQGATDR
Sequence of Kappa-type opioid receptor (Homo sapiens) (P41145 whole entry): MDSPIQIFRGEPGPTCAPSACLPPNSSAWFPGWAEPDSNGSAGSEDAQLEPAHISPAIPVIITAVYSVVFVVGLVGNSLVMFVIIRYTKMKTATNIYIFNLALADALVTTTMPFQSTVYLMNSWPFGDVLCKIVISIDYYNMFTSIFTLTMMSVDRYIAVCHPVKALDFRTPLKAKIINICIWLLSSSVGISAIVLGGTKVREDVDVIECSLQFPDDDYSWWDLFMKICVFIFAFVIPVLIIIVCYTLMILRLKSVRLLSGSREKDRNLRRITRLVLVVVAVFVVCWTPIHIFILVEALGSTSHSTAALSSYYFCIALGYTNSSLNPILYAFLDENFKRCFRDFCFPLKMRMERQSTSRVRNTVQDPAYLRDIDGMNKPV
Sequence of 5-hydroxytryptamine receptor 7 (Homo sapiens) (P34969 whole entry, the tested form may be a part): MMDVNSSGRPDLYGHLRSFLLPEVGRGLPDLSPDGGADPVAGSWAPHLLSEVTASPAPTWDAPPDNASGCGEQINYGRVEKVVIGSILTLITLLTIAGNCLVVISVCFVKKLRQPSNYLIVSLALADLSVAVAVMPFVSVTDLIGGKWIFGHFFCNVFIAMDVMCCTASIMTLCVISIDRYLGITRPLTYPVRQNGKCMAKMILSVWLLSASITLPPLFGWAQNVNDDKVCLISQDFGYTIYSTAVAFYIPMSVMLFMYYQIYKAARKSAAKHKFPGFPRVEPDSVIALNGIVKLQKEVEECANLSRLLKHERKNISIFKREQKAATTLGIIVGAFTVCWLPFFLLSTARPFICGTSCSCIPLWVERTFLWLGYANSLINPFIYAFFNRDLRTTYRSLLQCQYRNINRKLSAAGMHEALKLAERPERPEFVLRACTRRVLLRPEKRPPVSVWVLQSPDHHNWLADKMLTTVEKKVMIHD
Sequence of Dual specificity calcium/calmodulin-dependent 3',5'-cyclic nucleotide phosphodiesterase 1B (Homo sapiens) (Q01064 whole entry): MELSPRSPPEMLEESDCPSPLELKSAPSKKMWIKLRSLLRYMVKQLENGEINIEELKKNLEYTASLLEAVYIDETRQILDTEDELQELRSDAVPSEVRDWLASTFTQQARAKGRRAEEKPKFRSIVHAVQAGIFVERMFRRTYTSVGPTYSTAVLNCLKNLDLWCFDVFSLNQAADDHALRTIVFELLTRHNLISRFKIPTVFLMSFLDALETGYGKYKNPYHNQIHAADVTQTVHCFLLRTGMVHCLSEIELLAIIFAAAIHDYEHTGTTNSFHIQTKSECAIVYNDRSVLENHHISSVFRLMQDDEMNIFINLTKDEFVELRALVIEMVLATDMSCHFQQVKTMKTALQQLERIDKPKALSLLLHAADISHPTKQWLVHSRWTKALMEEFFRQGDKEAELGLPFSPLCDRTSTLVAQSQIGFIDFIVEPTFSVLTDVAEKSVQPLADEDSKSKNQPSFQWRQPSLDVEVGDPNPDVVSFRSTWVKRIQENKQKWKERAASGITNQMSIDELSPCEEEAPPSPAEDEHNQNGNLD
Sequence of Dual specificity calcium/calmodulin-dependent 3',5'-cyclic nucleotide phosphodiesterase 1A (Homo sapiens) (P54750 whole entry): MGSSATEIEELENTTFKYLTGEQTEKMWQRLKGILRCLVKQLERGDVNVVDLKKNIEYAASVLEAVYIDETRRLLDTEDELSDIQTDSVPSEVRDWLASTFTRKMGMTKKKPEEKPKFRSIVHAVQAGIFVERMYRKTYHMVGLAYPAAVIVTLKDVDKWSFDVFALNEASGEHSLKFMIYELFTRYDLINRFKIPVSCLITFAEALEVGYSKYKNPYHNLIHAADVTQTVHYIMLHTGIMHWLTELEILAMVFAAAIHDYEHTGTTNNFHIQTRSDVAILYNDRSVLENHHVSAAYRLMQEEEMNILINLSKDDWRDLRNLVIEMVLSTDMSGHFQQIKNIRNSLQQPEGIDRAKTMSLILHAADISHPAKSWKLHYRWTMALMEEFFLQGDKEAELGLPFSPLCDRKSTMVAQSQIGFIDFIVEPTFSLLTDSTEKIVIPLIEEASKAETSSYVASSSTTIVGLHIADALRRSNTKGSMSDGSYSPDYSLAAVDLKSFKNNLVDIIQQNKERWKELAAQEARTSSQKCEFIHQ
Sequence of 5-hydroxytryptamine receptor 5A (Homo sapiens) (P47898 whole entry): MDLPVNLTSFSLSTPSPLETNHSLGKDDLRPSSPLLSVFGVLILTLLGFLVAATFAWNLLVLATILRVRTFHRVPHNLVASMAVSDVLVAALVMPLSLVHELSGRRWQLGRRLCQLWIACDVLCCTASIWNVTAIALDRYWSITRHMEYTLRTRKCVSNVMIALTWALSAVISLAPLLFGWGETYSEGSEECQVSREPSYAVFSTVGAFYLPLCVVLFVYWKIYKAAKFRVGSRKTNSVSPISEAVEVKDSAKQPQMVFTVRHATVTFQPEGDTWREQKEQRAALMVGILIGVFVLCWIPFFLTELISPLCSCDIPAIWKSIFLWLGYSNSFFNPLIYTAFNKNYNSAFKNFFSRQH

O=C(c1nc2cccnc2n1-c1ccc(Cl)c(Cl)c1)N1CC(F)(F)C1 gave an inhibition [1] of under 50%, an inhibition [2] of 59% and an inhibition [3] of under 50%. It also gave an inhibition [4] of under 50%, an inhibition [5] of under 50% and an inhibition [6] of 87%. It also gave an inhibition [7] of under 50%, an inhibition (Rattus norvegicus) of under 50% and a half-life [8] of 49.4 min. It also gave an inhibition [9] of under 50%, an inhibition [10] of under 50% and an inhibition [11] of under 50%. It also gave an inhibition [12] of under 50%, a CLint scaled [13] of 97.1 mL/min/kg and an inhibition [14] of under 50%. For the same compound, the inhibition [15] was under 50%, the inhibition [16] was under 50% and the inhibition [17] was under 50%. For the same compound, the inhibition [18] was under 50%, the inhibition [19] was under 50% and the inhibition [20] was under 50%. For the same compound, the fraction unbound [21] was 0.038, the inhibition [22] was under 50% and the inhibition [23] was under 50%. It also gave a CLint scaled [24] of 100 mL/min/kg, an inhibition [25] of under 50% and an inhibition [26] of under 50%. It also gave an inhibition [27] of under 50%, an inhibition [28] of under 50% and an inhibition [29] of under 50%. The inhibition [30] was under 50%, the inhibition [31] was under 50% and the inhibition [32] was under 50%. The inhibition [33] was under 50%, the inhibition [34] was under 50% and the inhibition [35] was 70%. The inhibition [36] was under 50%, the inhibition [37] was under 50% and the inhibition [38] was under 50%.
